Where two headings read alike, the source gives them in different places.
Columns and labels:
[1] = biological target: RET-Gatekeeper mutation (V804L) recombinant protein (Homo sapiens (Human), UniProt P07949, V804L); assay: Evaluation of RET kinase inhibiting activity (cell-free system), gatekeeper mutant; format: biochemical
Description: (§1) 19 uL of the RET kinase solution was added to each of lines A to P of a 384-well plate, and thereafter, the test compound at each concentration was added to lines C to N, and further, 1 uL of dimethyl sulfoxide (hereinafter referred to as DMSO) was added to each of lines A, B, O and P. Thereafter, the obtained mixtures were each preincubated at room temperature for 20 minutes. Furthermore, a substrate solution A containing ATP (final concentration: 1 mM) and a substrate solution B containing no ATP, both in addition to a reaction buffer and FL-Peptide 22 (PerkinElmer, #760366, final concentration: 1.5 uM) were produced. The substrate solution A was added in an amount of 5 uL to lines B to 0, whereas the substrate solution B was added in an amount of 5 uL to lines A and P. The obtained mixtures were each incubated at 28° C. for 45 minutes. A reaction termination solution (100 mM HEPES (pH 7.4), 0.015% Briji-35, 40 mM EDTA, and 0.1% Coating Reagent 3) was added in an amount of 40 ul to the reaction mixture, so as to terminate the reaction.
(§2) Using EZ Reader II (Perkin Elmer), a substrate peptide was separated from a phosphorylated peptide in the reaction solution, and the product ratio (P/(P+S)) calculated from the peak (S) of the substrate peptide and the peak (P) of the phosphorylated peptide was used for evaluation. The inhibition of the test compound having each concentration was obtained by the following formula (automatically calculated using the software of EZ Reader II System). Inhibition (%)=100×(1−Ci/Co) (a) Ci: Conversion rate of a reaction of a test compound with substrate solution A−conversion rate of a reaction of DMSO with substrate solution B Co: Conversion rate of a reaction of DMSO with substrate solution A−conversion rate of a reaction of DMSO with substrate solution B
(§3) Based on the inhibition rates of the test compound at 12 different concentrations according to the formula (a), a 4-parameter logistic regression curve was drawn. At this time, the 4-parameter logistic regression equation is expressed as follows. Inhibition (%)=Bottom+(Top−Bottom)/(1+(X/IC50)^^slope) (b) Top: Upward asymptote Slope: Slope parameter IC50: Value X of (Top+Bottom)/2 Bottom: Downward asymptote X: Concentration of test compound
(§4) First, any given initial values are inputted into Top, Slope, IC50, Bottom (Top=100, Slope=−1, IC50=approx. IC50, and Bottom=0), so that a regression curve was drawn. Subsequently, a least-squares method was executed to the sum of squares of a difference between the measured value and the estimated value obtained from formula (b) to calculate the coefficient of the 4-parameter logistic regression equation, so as to calculate IC50.

RET-V804L = RET-V804L (Homo sapiens (Human), UniProt P07949, V804L); assay: Evaluation of RET kinase inhibiting activity (cell system), Ba/F3 cells overexpressing RET (V804L) mutant; format: cell-based; details: Ba/F3, compound 2 hours
Sequence of RET-V804L (P07949 29-1114 V804L): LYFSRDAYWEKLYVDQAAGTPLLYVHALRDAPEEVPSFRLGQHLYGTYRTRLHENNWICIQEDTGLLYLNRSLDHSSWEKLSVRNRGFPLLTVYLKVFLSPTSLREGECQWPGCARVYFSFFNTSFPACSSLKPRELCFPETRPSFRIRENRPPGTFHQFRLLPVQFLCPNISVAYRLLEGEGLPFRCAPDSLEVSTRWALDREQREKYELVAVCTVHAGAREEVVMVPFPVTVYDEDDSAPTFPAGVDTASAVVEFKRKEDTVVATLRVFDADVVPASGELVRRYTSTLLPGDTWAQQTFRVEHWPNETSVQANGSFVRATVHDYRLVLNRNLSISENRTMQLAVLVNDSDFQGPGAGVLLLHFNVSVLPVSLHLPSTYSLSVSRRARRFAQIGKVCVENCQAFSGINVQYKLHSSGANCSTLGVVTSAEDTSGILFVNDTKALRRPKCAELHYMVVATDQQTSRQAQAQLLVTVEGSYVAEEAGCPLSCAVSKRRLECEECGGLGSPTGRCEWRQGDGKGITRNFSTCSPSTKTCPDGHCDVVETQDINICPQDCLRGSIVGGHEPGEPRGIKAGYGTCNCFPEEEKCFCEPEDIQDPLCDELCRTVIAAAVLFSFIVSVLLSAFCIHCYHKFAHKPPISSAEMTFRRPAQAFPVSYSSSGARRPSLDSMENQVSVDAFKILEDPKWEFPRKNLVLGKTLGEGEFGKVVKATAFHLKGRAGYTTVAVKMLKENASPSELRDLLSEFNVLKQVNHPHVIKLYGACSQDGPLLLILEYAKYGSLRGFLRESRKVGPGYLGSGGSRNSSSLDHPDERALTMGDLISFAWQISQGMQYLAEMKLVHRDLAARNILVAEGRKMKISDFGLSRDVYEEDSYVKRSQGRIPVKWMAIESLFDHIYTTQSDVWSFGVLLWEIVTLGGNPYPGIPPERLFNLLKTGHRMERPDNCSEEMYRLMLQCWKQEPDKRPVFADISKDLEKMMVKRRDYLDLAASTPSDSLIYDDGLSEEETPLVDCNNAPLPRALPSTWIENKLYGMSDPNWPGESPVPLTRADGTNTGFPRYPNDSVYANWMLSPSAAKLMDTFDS
Description: (§5) Thereafter, 1 mL of Cell Lysis Buffer (Cell signaling technology, #9803), a single tablet of Phosphatase inhibitor (Roche, #04906837001), and a single tablet of Protease inhibitor (Roche, #0469312400) were added to 9 mL of MilliQ, and 20 ul of the obtained mixture was then added to each well. The mixture thus obtained was placed on ice for 20 minutes, so that the cells were lysed. A 5-ul aliquot was taken from the cell lysate, and thereafter, 64 nl of Myc antibody (Cell signaling technology, #3946) and Streptavidin Donor beads in an equal amount of 102 nl of P-Tyr-100 Acceptor beads included in the Alpha Screen Phosphotyrosine (P-Tyr-100) assay kit (Perkin Elmer, #6760620C) were added to the aliquot in accordance with the instruction manual included with the aforementioned assay kit. The obtained mixture was reacted at room temperature overnight, and a RET kinase inhibiting activity rate was then measured using Envision.

[2] = biological target: RET recombinant protein (RET-wild type) (Homo sapiens (Human), UniProt P07949); assay: Evaluation of RET kinase inhibiting activity (cell-free system), mobility shift assay; format: biochemical
Sequence of RET recombinant protein (RET-wild type) (P07949 29-1114): as the sequence (P07949 29-1114 V804L) above, with L776V counted along it
Description: as §1, §2, §3, §4

RET-wild type = RET-wild type (Homo sapiens (Human), UniProt P07949); assay: Evaluation of RET kinase inhibiting activity (cell system), Ba/F3 cells overexpressing Myc tagged RET; format: cell-based; details: Ba/F3, compound 2 hours, read-out: RET-wild type IC50
Sequence of RET-wild type (P07949 29-1114): as the sequence (P07949 29-1114 V804L) above, with L776V counted along it
Description: as §5

[3] = tested on: phosphorylated RET (ETV-RET) in Ba/F3-RET tumors; assay: One shot PKPD analysis, Ba/F3-RET tumors; format: in vivo, mice
Description: Murine pro-B cells, Ba/F3, expressing fusion protein of ets variant 6 (ETV)-RET and ETV-RET-V804L were constructed by Daiichi Sankyo RD Novare Co., Ltd., and cultivated in RPM11640 medium (Thermo Fisher Scientific K.K.) supplemented with 10% (v/v) heat-inactivated fetal bovine serum (FBS, GE Healthcare) and 1.5 µg/mL puromycin in a CO2 incubator that was set at 37° C. with a 5% CO2 atmosphere. The cells were suspended in DPBS and inoculated subcutaneously into mice at 1.0×10^7 cells per mouse. After the tumor had reached a size of 100 to 200 mm^3, the mice were randomized based on tumor diameter and the test compounds (10 mg/kg, Compound 229 or Example 3) which were dissolved in 1% (w/v) hydroxypropyl methylcellulose solution were administrated orally. Control group was administrated with 1% (w/v) hydroxypropyl methylcellulose solution. […] Protein concentration of tumor lysate was quantified by colorimetric reagent (Thermo Fisher Scientific K.K.) and all were diluted to the same concentration by lysis buffer. […] The chemiluminescence reaction of HRP and the substrate (Pierce ECL Plus Western Blotting Substrate, Cat. No. 32132, Thermo Fisher Scientific K.K.) was detected by an image scanner Typhoon 9400 (GE Healthcare). Signal intensities fo phosphorylated RET (pRET) and RET were quantified and calculated as following methods. […]

Sequence of RET-Gatekeeper mutation (V804L) recombinant protein (P07949 29-1114 V804L): as the sequence (P07949 29-1114 V804L) above

IC50 ([1]; cell-free system, ATP 1 mM, read-out: RET-V804L IC50): 6.3 nM
IC50 ([1]; non-cell system, read-out: Biochemical assay (non-cell system) IC50 (nM) RET-V804L): 6.3 nM
IC50 (RET-V804L): 15 nM
IC50 ([2]; cell-free system, ATP 1 mM, read-out: RET-wild type IC50): 4.6 nM
IC50 ([2]; non-cell system, read-out: Biochemical assay (non-cell system) IC50 (nM) RET-WT): 4.6 nM
IC50 (RET-wild type): 4 nM
Structure (SMILES): COc1cc2cc(-c3ccc(CC(=O)Nc4cc(C(C)(C)C(F)(F)F)no4)cn3)cnc2cc1OC [Example 3, 2-[6-(6,7-Dimethoxyquinolin-3-yl)pyridin-3-yl]-N-[3-(1,1,1-trifluoro-2-methylpropan-2-yl)-1,2-oxazol-5-yl]acetamide]
inhibition of pRET in Ba/F3-RET tumors ([3]; 10 mg/kg oral): clearly inhibited
Relative phosphorylation of RET (%) in Ba/F3-RET tumors ([3]; Dose: 10 mg/kg oral, six hours after administration, relative to vehicle): 6%
